Test results taken from US20100041089A1, “IMPROVED METHOD FOR DETECTING CHEMICAL […]” (priority 2006, published 2010).

Tested on: yeast genes (expressed mRNA)
Experiment: DNA chip measurement of expressed mRNA of yeast genes after culture with a toxic chemical substance
Format: cell-based, Saccharomyces cerevisiae S288C
Outline: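 Expression is given as treated/untreated fluorescence ratio on a whole-genome yeast DNA chip, a ratio of two or more being significant. Log-phase S288C cultures in YPD at 25 °C received the chemical for 2 h at a dose that slows growth without killing. mRNA was reverse-transcribed with Cy3- or Cy5-dUTP.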

## CCCCC[C@H](O)CC(=O)CCc1ccc(O)c(OC)c1 [(13), Gingerol]
Gene YDL067C (mitochondria-located protein gene), yeast cultured two hours with chemical substance, DNA chip fluorescence ratio to control
  The level of expressed mRNA in the presence of chemical substance/The level of expressed mRNA in the absence of chemical substance, yeast gene YDL067C: 0.6
Gene YDR079W (mitochondria-located protein gene), yeast cultured two hours with chemical substance, DNA chip fluorescence ratio to control
  The level of expressed mRNA in the presence of chemical substance/The level of expressed mRNA in the absence of chemical substance, yeast gene YDR079W: 1.3
Yeast gene YAL018C, cultured two hours with the chemical substance
  level of expressed mRNA in the presence of chemical substance / level in the absence of chemical substance: 1.3
Yeast gene YAR028W, cultured two hours with substance
  The level of expressed mRNA in the presence of chemical substance/The level of expressed mRNA in the absence of chemical substance: 1.4
Yeast gene YAR047C, cultured two hours with the chemical substance
  level of expressed mRNA in the presence of chemical substance / level in the absence of chemical substance: 1.4
Yeast gene YAR064W, cultured two hours with the chemical substance
  level of expressed mRNA in the presence of chemical substance / level in the absence of chemical substance: 1.1
Yeast gene YBL044W, cultured two hours with the chemical substance
  level of expressed mRNA in the presence of chemical substance / level in the absence of chemical substance: 0.7
Yeast gene YBL048W, cultured two hours with substance
  The level of expressed mRNA in the presence of chemical substance/The level of expressed mRNA in the absence of chemical substance: 2.7
Yeast gene YBR012C, cultured two hours with the chemical substance
  level of expressed mRNA in the presence of chemical substance / level in the absence of chemical substance: 2.1
Yeast gene YBR047W, cultured two hours with substance
  The level of expressed mRNA in the presence of chemical substance/The level of expressed mRNA in the absence of chemical substance: 1.7
Yeast gene YBR062C, cultured two hours with substance
  The level of expressed mRNA in the presence of chemical substance/The level of expressed mRNA in the absence of chemical substance: 2.8
Yeast gene YBR066C, cultured two hours with the chemical substance
  level of expressed mRNA in the presence of chemical substance / level in the absence of chemical substance: 0.6
Yeast gene YBR124W, cultured two hours with the chemical substance
  level of expressed mRNA in the presence of chemical substance / level in the absence of chemical substance: 0.9
Yeast gene YBR162C, cultured two hours with the chemical substance
  level of expressed mRNA in the presence of chemical substance / level in the absence of chemical substance: 0.7
Yeast gene YBR185C, mitochondria-located protein gene, cultured two hours with substance
  The level of expressed mRNA in the presence of chemical substance/The level of expressed mRNA in the absence of chemical substance: 1.0
Yeast gene YBR287W, cultured two hours with the chemical substance
  level of expressed mRNA in the presence of chemical substance / level in the absence of chemical substance: 3.4
Yeast gene YCL042W, cultured two hours with the chemical substance
  level of expressed mRNA in the presence of chemical substance / level in the absence of chemical substance: 7.5
Yeast gene YCL056C, cultured two hours with the chemical substance
  level of expressed mRNA in the presence of chemical substance / level in the absence of chemical substance: 1.3
Yeast gene YCR007C, cultured two hours with the chemical substance
  level of expressed mRNA in the presence of chemical substance / level in the absence of chemical substance: 1.5
Yeast gene YCR030C, cultured two hours with the chemical substance
  The level of expressed mRNA in the presence of chemical substance/The level of expressed mRNA in the absence of chemical substance: 1.7
Yeast gene YDL046W, cultured two hours with the chemical substance
  level of expressed mRNA in the presence of chemical substance / level in the absence of chemical substance: 1.5
Yeast gene YDL174C, cultured for two hours with substance
  The level of expressed mRNA in the presence of chemical substance/The level of expressed mRNA in the absence of chemical substance: 5.9
Yeast gene YDR001C, cultured for two hours with substance
  The level of expressed mRNA in the presence of chemical substance/The level of expressed mRNA in the absence of chemical substance: 2.8
Yeast gene YDR090C, cultured two hours with the chemical substance
  level of expressed mRNA in the presence of chemical substance / level in the absence of chemical substance: 0.8
Yeast gene YDR128W, cultured two hours with the chemical substance
  level of expressed mRNA in the presence of chemical substance / level in the absence of chemical substance: 1.1
Yeast gene YDR133C, cultured two hours with the chemical substance
  level of expressed mRNA in the presence of chemical substance / level in the absence of chemical substance: 0.1
Yeast gene YDR214W, cultured two hours with substance
  The level of expressed mRNA in the presence of chemical substance/The level of expressed mRNA in the absence of chemical substance: 5.3
Yeast gene YDR250C, cultured two hours with the chemical substance
  level of expressed mRNA in the presence of chemical substance / level in the absence of chemical substance: 1.2
Yeast gene YDR278C, cultured two hours with the chemical substance
  level of expressed mRNA in the presence of chemical substance / level in the absence of chemical substance: 0.7
Yeast gene YDR281C, cultured two hours with the chemical substance
  level of expressed mRNA in the presence of chemical substance / level in the absence of chemical substance: 0.7
Yeast gene YDR366C, cultured two hours with the chemical substance
  level of expressed mRNA in the presence of chemical substance / level in the absence of chemical substance: 0.8
Yeast gene YDR377W, mitochondria-located protein gene, cultured two hours with substance
  The level of expressed mRNA in the presence of chemical substance/The level of expressed mRNA in the absence of chemical substance: 0.7
Yeast gene YDR486C, cultured two hours with substance
  The level of expressed mRNA in the presence of chemical substance/The level of expressed mRNA in the absence of chemical substance: 1.7
Yeast gene YDR506C
  The level of expressed mRNA in the presence of chemical substance/The level of expressed mRNA in the absence of chemical substance: 0.3
Yeast gene YDR533C, cultured two hours with substance
  The level of expressed mRNA in the presence of chemical substance/The level of expressed mRNA in the absence of chemical substance: 3.0
Yeast gene YEL024W, mitochondria-located protein gene, cultured two hours with substance
  The level of expressed mRNA in the presence of chemical substance/The level of expressed mRNA in the absence of chemical substance: 0.6
Yeast gene YER037W, cultured two hours with substance
  The level of expressed mRNA in the presence of chemical substance/The level of expressed mRNA in the absence of chemical substance: 3.0
Yeast gene YER079W, cultured two hours with substance
  The level of expressed mRNA in the presence of chemical substance/The level of expressed mRNA in the absence of chemical substance: 2.1
Yeast gene YFL014W, DNA repair protein genes, cultured two hours with substance
  The level of expressed mRNA in the presence of chemical substance/The level of expressed mRNA in the absence of chemical substance: 15.2
Yeast gene YFL032W, cultured two hours with substance
  The level of expressed mRNA in the presence of chemical substance/The level of expressed mRNA in the absence of chemical substance: 2.4
Yeast gene YFL044C, cultured two hours with substance
  The level of expressed mRNA in the presence of chemical substance/The level of expressed mRNA in the absence of chemical substance: 4.7
Yeast gene YFR017C, cultured two hours with substance
  The level of expressed mRNA in the presence of chemical substance/The level of expressed mRNA in the absence of chemical substance: 1.7
Yeast gene YFR026C, cultured two hours with the chemical substance
  level of expressed mRNA in the presence of chemical substance / level in the absence of chemical substance: 1.1
Yeast gene YFR044C, cultured two hours with substance
  The level of expressed mRNA in the presence of chemical substance/The level of expressed mRNA in the absence of chemical substance: 3.1
Yeast gene YGL037C, cultured two hours with substance
  The level of expressed mRNA in the presence of chemical substance/The level of expressed mRNA in the absence of chemical substance: 2.3
Yeast gene YGL088W, cultured two hours with the chemical substance
  level of expressed mRNA in the presence of chemical substance / level in the absence of chemical substance: 0.7
Yeast gene YGL187C, mitochondria-located protein gene, cultured two hours with substance
  The level of expressed mRNA in the presence of chemical substance/The level of expressed mRNA in the absence of chemical substance: 0.7
Yeast gene YGL191W, mitochondria-located protein gene, cultured two hours with substance
  The level of expressed mRNA in the presence of chemical substance/The level of expressed mRNA in the absence of chemical substance: 1.1
Yeast gene YGR038W, cultured two hours with the chemical substance
  level of expressed mRNA in the presence of chemical substance / level in the absence of chemical substance: 1.2
Yeast gene YGR043C, cultured for two hours with substance
  The level of expressed mRNA in the presence of chemical substance/The level of expressed mRNA in the absence of chemical substance: 6.9
Yeast gene YGR101W, cultured two hours with substance
  The level of expressed mRNA in the presence of chemical substance/The level of expressed mRNA in the absence of chemical substance: 2.4
Yeast gene YGR110W, cultured two hours with substance
  The level of expressed mRNA in the presence of chemical substance/The level of expressed mRNA in the absence of chemical substance: 3.6
Yeast gene YGR139W, cultured two hours with the chemical substance
  level of expressed mRNA in the presence of chemical substance / level in the absence of chemical substance: 0.4
Yeast gene YGR146C, cultured two hours with substance
  The level of expressed mRNA in the presence of chemical substance/The level of expressed mRNA in the absence of chemical substance: 1.7
Yeast gene YGR154C, cultured two hours with substance
  The level of expressed mRNA in the presence of chemical substance/The level of expressed mRNA in the absence of chemical substance: 2.5
Yeast gene YGR161C, cultured two hours with substance
  The level of expressed mRNA in the presence of chemical substance/The level of expressed mRNA in the absence of chemical substance: 2.8
Yeast gene YGR231C, DNA repair protein genes, cultured two hours with substance
  The level of expressed mRNA in the presence of chemical substance/The level of expressed mRNA in the absence of chemical substance: 3.9
Yeast gene YGR243W, cultured two hours with the chemical substance
  level of expressed mRNA in the presence of chemical substance / level in the absence of chemical substance: 1.1
Yeast gene YGR256W, cultured for two hours with substance
  The level of expressed mRNA in the presence of chemical substance/The level of expressed mRNA in the absence of chemical substance: 3.9
Yeast gene YGR268C, cultured two hours with substance
  The level of expressed mRNA in the presence of chemical substance/The level of expressed mRNA in the absence of chemical substance: 2.8
Yeast gene YGR293C, cultured two hours with the chemical substance
  level of expressed mRNA in the presence of chemical substance / level in the absence of chemical substance: 0.7
Yeast gene YHL006C, cultured two hours with the chemical substance
  level of expressed mRNA in the presence of chemical substance / level in the absence of chemical substance: 1.1
Yeast gene YHR095W, cultured two hours with the chemical substance
  level of expressed mRNA in the presence of chemical substance / level in the absence of chemical substance: 0.7
Yeast gene YHR105W, cultured two hours with the chemical substance
  level of expressed mRNA in the presence of chemical substance / level in the absence of chemical substance: 1.4
Yeast gene YHR181W, cultured two hours with the chemical substance
  level of expressed mRNA in the presence of chemical substance / level in the absence of chemical substance: 0.7
Yeast gene YHR199C, cultured two hours with substance
  The level of expressed mRNA in the presence of chemical substance/The level of expressed mRNA in the absence of chemical substance: 2.1
Yeast gene YIL087C, cultured two hours with substance
  The level of expressed mRNA in the presence of chemical substance/The level of expressed mRNA in the absence of chemical substance: 2.4
Yeast gene YIL122W, cultured two hours with the chemical substance
  The level of expressed mRNA in the presence of chemical substance/The level of expressed mRNA in the absence of chemical substance: 0.7
Yeast gene YIL127C, cultured two hours with the chemical substance
  level of expressed mRNA in the presence of chemical substance / level in the absence of chemical substance: 0.4
Yeast gene YJL017W, cultured two hours with the chemical substance
  level of expressed mRNA in the presence of chemical substance / level in the absence of chemical substance: 1.5
Yeast gene YJL037W, cultured two hours with the chemical substance
  level of expressed mRNA in the presence of chemical substance / level in the absence of chemical substance: 1.1
Yeast gene YJL057C, cultured two hours with substance
  The level of expressed mRNA in the presence of chemical substance/The level of expressed mRNA in the absence of chemical substance: 2.5
Yeast gene YJL082W, cultured two hours with substance
  The level of expressed mRNA in the presence of chemical substance/The level of expressed mRNA in the absence of chemical substance: 2.1
Yeast gene YJL097W, cultured two hours with the chemical substance
  level of expressed mRNA in the presence of chemical substance / level in the absence of chemical substance: 0.7
Yeast gene YJL144W, cultured two hours with substance
  The level of expressed mRNA in the presence of chemical substance/The level of expressed mRNA in the absence of chemical substance: 3.9
Yeast gene YJL151C, cultured two hours with substance
  The level of expressed mRNA in the presence of chemical substance/The level of expressed mRNA in the absence of chemical substance: 2.4
Yeast gene YJL161W, cultured two hours with substance
  The level of expressed mRNA in the presence of chemical substance/The level of expressed mRNA in the absence of chemical substance: 2.5
Yeast gene YJR030C, cultured two hours with the chemical substance
  level of expressed mRNA in the presence of chemical substance / level in the absence of chemical substance: 0.7
Yeast gene YJR046W, DNA repair protein genes, cultured two hours with substance
  The level of expressed mRNA in the presence of chemical substance/The level of expressed mRNA in the absence of chemical substance: 3.0
Yeast gene YJR074W, cultured two hours with substance
  The level of expressed mRNA in the presence of chemical substance/The level of expressed mRNA in the absence of chemical substance: 2.8
Yeast gene YJR121W, mitochondria-located protein gene, cultured two hours with substance
  The level of expressed mRNA in the presence of chemical substance/The level of expressed mRNA in the absence of chemical substance: 1.0
Yeast gene YJR123W
  The level of expressed mRNA in the presence of chemical substance/The level of expressed mRNA in the absence of chemical substance: 0.1
Yeast gene YKL051W, cultured two hours with the chemical substance
  level of expressed mRNA in the presence of chemical substance / level in the absence of chemical substance: 1.2
